Data reported in article PMC7807051, “Modulation of cAMP metabolism for CFTR potentiation in human airway epithelial cells” (Scientific Reports, 2021).

Key:
[1] = tested on: CFTR; design: method as in PMID 24106801; conditions: primary non-CF HBECs; cited from earlier work
[2] = tested on: CFTR; assay: In vitro CFTR membrane potential assay in Calu-3 cells; type: cell-based, human; conditions: Calu-3
Protocol: (§1) An in vitro CFTR membrane potential assay was performed on Calu-3 cells and primary human bronchial epithelial cells, from two independent donors, cultured at 37 °C as previously described. All human samples were collected from consented individuals under ethics approval granted by Hamilton Integrated Research Ethics Board (Project Number 5099-T).
Calu-3 cells were grown for 21 days on 96-well plates and primary HBECs were grown for 14 days under air–liquid interface conditions on collagen-coated (Sigma-Aldrich) 6.5 mm Transwell Inserts (Corning). All cells were washed with HBSS prior to experimental conditions. After washing with HBSS, cells were loaded with BLUE Membrane Potential Dye (Molecular Devices, #R8042) dissolved in 37 °C chloride-free buffer (NMDG Gluconate Buffer – 150 mM NMDG-gluconate, 3 mM KCl, 10 mM HEPES, pH 7.35, 300 mOsm). Immediately after dye loading, CFTR activity measurements were taken. CFTR activity measurements are fluorescent readouts for detecting ion channel activity. CFTR inhibition was performed with CFTRinh-172 (10 μM) for all experiments to attribute changes in fluorescence as CFTR channel activity. This assay has been validated using proof of concept studies where results obtained from this assay were able to recapitulate findings obtained from direct measurements of ion channel activity using Ussing chambers. At the end of this assay, raw data was exported for statistical analysis.
For Calu-3 cells, measurements were taken during baseline (40 min), cAMP elevation (30 min), and CFTR inhibition (20 min). cAMP elevation was performed using forskolin or isoproterenol (0.0005–50 μM). For assays with ABCC4 or PDE-4 inhibitors, a pre-incubation with the inhibitors (30 min) in the plate reader was performed prior to cAMP elevation. CFTR modulator VX-770 was used at 1 μM. CFTR activity was determined by dividing a single membrane potential peak measurement after the ABCC4 or PDE-4 inhibition and cAMP elevation additions to the stabilized baseline over DMSO control.
For in vitro CFTR membrane potential assays, in Calu-3 cells, values were normalized to the averaged baseline over averaged vehicle (DMSO) control of all biological replicates. SD was calculated using data from biological replicates (n = 4–8). An area under the curve (AUC), half-maximal concentration (EC50), […] (Emax), and baseline analysis was performed for each individual replicate then averaged together. The AUC analysis is an aggregate measure of sensitivity and maximal response, allowing for the observation of the total net responsiveness of the cells. The AUC analysis was done by normalizing the individual replicates to the bottom most value of the averaged vehicle control. In primary HBECs, six independent measurements were taken within a single Transwell insert. The value is the average of at least six measurements. These values were normalized to the averaged baseline over the averaged vehicle (DMSO) control. SD was calculated by treating the six measurements as independent, with additional technical replicates (n = 6–18). An AUC and max peak analysis were performed for each measurement, then averaged together. The max peak analysis was the max CFTR activity achieved during the drug addition step.
In order to compare the independent experiments performed, a fold-change analysis using individual AUC, EC50, and Emax, determined from their respective concentration–response curves, was performed and was normalized to the averaged DMSO vehicle control. A one-way ANOVA with subsequent post-hoc test or a paired t-test was performed. Statistical analysis was performed using GraphPad Prism 6.

[3] = molecular target: T1, CFTR (Homo sapiens, UniProt P13569); assay: In vitro CFTR membrane potential assay in primary human bronchial epithelial cells (air–liquid interface); type: cell-based; conditions: primary HBECs, one donor sample; forskolin 10 μM; VX-770 1 μM, MK-571 1.8 μM, Roflumilast 1 μM
T1 construct: endogenous in cells; host or cells: primary human bronchial epithelial cells from two donors, air–liquid interface
Protocol: as §1
Calu-3 cells were grown for 21 days on 96-well plates and primary HBECs were grown for 14 days under air–liquid interface conditions on collagen-coated (Sigma-Aldrich) 6.5 mm Transwell Inserts (Corning). All cells were washed with HBSS prior to experimental conditions. […] CFTR activity measurements are fluorescent readouts for detecting ion channel activity. CFTR inhibition was performed with CFTRinh-172 (10 μM) for all experiments to attribute changes in fluorescence as CFTR channel activity. […]
For primary HBECs, measurements were taken during baseline (8 min), drug additions (40 min), and CFTR inhibitions (18 min). cAMP elevation was performed using forskolin (10 μM). […] CFTR activity was determined by averaging six independent measurements within a single Transwell insert. […]
For in vitro CFTR membrane potential assays, in Calu-3 cells, values were normalized to the averaged baseline over averaged vehicle (DMSO) control of all biological replicates. SD was calculated using data from biological replicates (n = 4–8). […]

[4] = tested on: CFTR; design: method as in PMID 24106801; conditions: Calu-3 cells; cited from earlier work
[5] = tested on: G551D-CFTR; design: method as in PMID 21083385, PMID 22047557; conditions: G551D-CFTR variants; various doses and treatment durations; cited from earlier work
[6] = forskolin (FSK) curve with agent vs DMSO control
[7] = forskolin (FSK) curve with agent vs DMSO control, VX-770 1 μM, MK-571 1.8 μM, Ceefourin-1 4.8 μM, Roflumilast 1 μM, Rolipram 10 μM, IBMX 100 μM
[8] = isoproterenol (ISO) curve with agent vs DMSO control
[9] = isoproterenol (ISO) curve with agent vs DMSO control, same agent concentrations as E5

T1 sequence (P13569 whole entry): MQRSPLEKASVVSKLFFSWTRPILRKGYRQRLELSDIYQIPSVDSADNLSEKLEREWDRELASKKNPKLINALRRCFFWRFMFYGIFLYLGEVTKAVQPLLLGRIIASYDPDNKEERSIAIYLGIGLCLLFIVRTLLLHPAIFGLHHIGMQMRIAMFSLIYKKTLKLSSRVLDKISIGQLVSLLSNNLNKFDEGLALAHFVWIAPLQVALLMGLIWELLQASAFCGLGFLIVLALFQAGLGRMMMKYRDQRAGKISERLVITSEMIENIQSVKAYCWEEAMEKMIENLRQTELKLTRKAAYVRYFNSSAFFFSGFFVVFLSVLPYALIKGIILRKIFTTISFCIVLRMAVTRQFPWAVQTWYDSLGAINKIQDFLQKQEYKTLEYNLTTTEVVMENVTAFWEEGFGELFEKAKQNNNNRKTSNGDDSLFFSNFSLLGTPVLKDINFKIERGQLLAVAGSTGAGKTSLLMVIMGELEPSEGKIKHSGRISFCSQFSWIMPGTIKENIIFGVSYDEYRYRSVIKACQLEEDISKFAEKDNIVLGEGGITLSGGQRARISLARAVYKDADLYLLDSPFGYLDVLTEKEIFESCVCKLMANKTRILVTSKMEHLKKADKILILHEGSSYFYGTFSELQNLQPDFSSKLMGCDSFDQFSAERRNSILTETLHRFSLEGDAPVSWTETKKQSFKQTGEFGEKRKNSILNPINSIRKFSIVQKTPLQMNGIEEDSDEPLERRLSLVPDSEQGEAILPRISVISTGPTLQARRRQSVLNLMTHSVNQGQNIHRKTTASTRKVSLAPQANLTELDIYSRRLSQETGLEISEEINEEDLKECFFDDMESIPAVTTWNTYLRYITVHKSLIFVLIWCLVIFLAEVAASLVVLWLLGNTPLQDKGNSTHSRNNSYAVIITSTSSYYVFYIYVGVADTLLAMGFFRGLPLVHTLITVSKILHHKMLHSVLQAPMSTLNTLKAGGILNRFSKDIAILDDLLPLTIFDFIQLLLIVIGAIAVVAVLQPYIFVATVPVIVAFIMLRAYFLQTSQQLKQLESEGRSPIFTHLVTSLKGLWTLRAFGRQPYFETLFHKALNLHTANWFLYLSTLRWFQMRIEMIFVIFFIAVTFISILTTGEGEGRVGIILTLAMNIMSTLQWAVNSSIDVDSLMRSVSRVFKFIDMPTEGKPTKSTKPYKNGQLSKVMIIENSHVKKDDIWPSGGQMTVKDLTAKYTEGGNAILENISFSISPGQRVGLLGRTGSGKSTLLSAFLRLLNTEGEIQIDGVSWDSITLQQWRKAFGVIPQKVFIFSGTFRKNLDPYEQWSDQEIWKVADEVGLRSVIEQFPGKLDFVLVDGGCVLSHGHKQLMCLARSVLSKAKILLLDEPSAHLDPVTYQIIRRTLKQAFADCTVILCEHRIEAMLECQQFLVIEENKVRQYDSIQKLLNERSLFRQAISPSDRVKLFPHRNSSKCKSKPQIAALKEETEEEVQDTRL

SMILES	CFTR activation [1]	Baseline of concentration–response curve, CFTR activity [2, 6]	EC50 of concentration–response curve, CFTR activity [2, 6]	Emax of concentration–response curve, CFTR activity [2, 6]	AUC of concentration–response curve, CFTR activity [2, 7]	Baseline of concentration–response curve, CFTR activity [2, 8]	EC50 of concentration–response curve, CFTR activity [2, 8]	Emax of concentration–response curve, CFTR activity [2, 8]	AUC of concentration–response curve, CFTR activity [2, 9]	AUC of CFTR activity time course compared with VX-770 alone [3]	max peak of CFTR activity compared with VX-770 alone [3]	CFTR potentiation beyond max FSK stimulation [4]	predicted forced expiratory volume in 1 s (FEV1) from baseline [5]	Fold-change of AUC relative to vehicle control ([2]; FSK stimulation, comparison across independent experiments)
O=C(Nc1c(Cl)cncc1Cl)c1ccc(OC(F)F)c(OCC2CC2)c1 [Roflumilast]	led to CFTR activation	not different	not different	not different	not FSK	not different	not different	not different	significant increases	significantly greater than VX-770 alone	significantly greater than VX-770 alone	did not potentiate CFTR activity beyond the max stimulation that resulted from the addition of FSK	–	–
CC(C)(C)c1cc(C(C)(C)C)c(NC(=O)c2c[nH]c3ccccc3c2=O)cc1O [VX-770, ivacaftor]	–	no significant changes	increased the sensitivity	remained unchanged	significant increase	significant increase	no changes	no changes	significant increase	–	–	–	significant increases	superior to either ABCC4 (MK-571) or PDE-4 (Roflumilast) inhibition alone
